SMILES strings stand for the structures.

Format in all cases: in vivo
For data set [1], the system named is Scirpus juncoides. In words: Paddy herbicidal activity test. The following applies: irrigated pot, treated at 3.5 leaf stage of Echinochloa crus-galli, 30 days at 30° C. The method, then:
(§1) Rice paddy soil was filled into a 1/10000 are pot followed by the addition of suitable amounts of water and chemical fertilizer, kneading, seeding with Echinochloa crus-galli, Monochoria vaginalis and Scirpus juncoides and maintaining in an irrigated state at a water depth of 3 cm. Wettable powders of Target Compound (I) shown in Table 1 prepared in compliance with the preparation examples were diluted with a suitable amount of water, rice plants in the 2.0 leaf stage were transplanted during 3.5 leaf stage of Echinochloa crus-galli, and treated by dropping in chemical in the prescribed amount per 10 are using a pipette. After treating for 30 days in a glass greenhouse at an average atmospheric temperature of 30° C., the herbicidal efficacy thereof was investigated. Evaluation of herbicidal efficacy was carried out by comparing growth inhibition rate (%) with an untreated group, while evaluation of phytotoxicity was carried out by comparing growth inhibition rate (%) with the state of a complete eradication group, and were evaluated at 11 levels indicated below.

Data set [2] concerns Monochoria vaginalis. The experiment in a line: Paddy herbicidal activity test. The settings on record: irrigated pot, treated at 3.5 leaf stage of Echinochloa crus-galli, 30 days at 30° C. The procedure: as §1
Data set [3] has as its system Echinochloa crus-galli. The experiment in a line: Paddy herbicidal activity test. The settings on record: irrigated pot, treated at 3.5 leaf stage of Echinochloa crus-galli, 30 days at 30° C. The method, then:
as §1

Data set [4] relates to Oryza sativa. The experiment in a line: Paddy herbicidal activity test, phytotoxicity to transplanted rice. The settings on record: rice transplanted at 2.0 leaf stage, 30 days at 30° C. The method, then:
as §1

The test system of data set [5] is Digitaria ciliaris. The experiment in a line: Weed foliar treatment test (Test 4, 4.0 to 5.0 leaf stage). The following applies: 10 g a.i./10 a; foliar spray at 4.0 to 5.0 leaf stage of Digitaria ciliaris (plant height 10 cm to 15 cm); 20 days at 25° C. The procedure: (§2) Field soil was filled into a 1/4500 are pot followed by seeding with Digitaria ciliaris and Galinsoga parviflora, covering with soil and cultivating in a glass greenhouse at an average atmospheric temperature of 25° C. Wettable powders of Target Compound (I) shown in Table 1 prepared in compliance with the preparation examples were diluted with water to the prescribed amount of chemical and uniformly sprayed onto the weeds using 100 liters of sprayed water per 10 are when Digitaria ciliaris had grown to the 4.0 to 5.0 leaf stage (plant height: 10 cm to 15 cm). After treating for 20 days in a glass greenhouse at an average atmospheric temperature of 25° C., the herbicidal efficacy thereof was investigated. Evaluation of herbicidal efficacy was carried out in the same manner as the above-mentioned Test Example 1.

Data set [6] has as its system Galinsoga parviflora. The data set is described as above. The settings on record: 10 g a.i./10 a; foliar spray at 4.0 to 5.0 leaf stage of Digitaria ciliaris (plant height 10 cm to 15 cm); 20 days at 25° C. The method, then:
as §2

In data set [7] the test system is Digitaria ciliaris. The experiment in a line: Farming soil treatment test. The settings on record: soil surface spray prior to weed growth, 30 days at 30° C. The method, then:
(§3) Field soil was filled into a 1/6000 are pot followed by seeding with Digitaria ciliaris, Chenopodium album and Amaranthus retroflexus and covering with soil. Wettable powders of compounds of formula (I) shown in Table 1 prepared in compliance with the preparation examples were diluted with water to the prescribed amount of chemical and uniformly sprayed onto each soil surface layer using 100 liters of sprayed water per 10 are prior to weed growth following seeding. After treating for 30 days in a glass greenhouse at an average atmospheric temperature of 30° C., the herbicidal efficacy thereof was investigated. Evaluation of herbicidal efficacy was carried out in the same manner as the above-mentioned Test Example 1.

For data set [8], the system named is Amaranthus retroflexus. The experiment in a line: Farming soil treatment test. The following applies: soil surface spray prior to weed growth, 30 days at 30° C. The procedure:
as §3

Data set [9] relates to Chenopodium album. In words: Farming soil treatment test. The settings on record: soil surface spray prior to weed growth, 30 days at 30° C. The method, then:
as §3

Data set [10] has as its system Digitaria ciliaris. The experiment in a line: Weed foliar treatment test (Test 3, 1.0 to 2.0 leaf stage). The following applies: foliar spray at 1.0 to 2.0 leaf stage of Digitaria ciliaris, 3 weeks at 25° C. The procedure:
(§4) Soil was filled into a 1/6000 are pot followed by seeding with Digitaria ciliaris, Chenopodium album and Amaranthus retroflexus, covering with soil, and cultivating in a glass greenhouse at an average atmospheric temperature of 25° C. Wettable powders of Target Compound (I) shown in Table 1 prepared in compliance with the preparation examples were diluted with water to the prescribed amount of chemical and uniformly sprayed onto the weeds using 150 liters of sprayed water per 10 are when Digitaria ciliaris had grown to the 1.0 to 2.0 leaf stage. After treating for 3 weeks in a glass greenhouse at an average atmospheric temperature of 25° C., the herbicidal efficacy thereof was investigated. Evaluation of herbicidal efficacy was carried out in the same manner as the above-mentioned Test Example 1.

Data set [11] has as its system Amaranthus retroflexus. Described as above. The settings on record: foliar spray at 1.0 to 2.0 leaf stage of Digitaria ciliaris, 3 weeks at 25° C. The method, then:
as §4

Data set [12] deals with Chenopodium album. The description is as above. The following applies: foliar spray at 1.0 to 2.0 leaf stage of Digitaria ciliaris, 3 weeks at 25° C. The procedure: as §4

For `Cc1ccccc1CC(=O)Nc1c(C#N)cnn1-c1nn2c(c1Cl)CCCC2` [Compound 6], the “herbicidal efficacy, Scirpus juncoides” value in [1] (1 g a.i./10 a) and in data set [1] (5 g a.i./10 a) was 10 (10: 100%) in each case. In addition, the “herbicidal efficacy, Monochoria vaginalis” value in data set [2] (1 g a.i./10 a) and in [2] (5 g a.i./10 a) was 10 (10: 100%) throughout. Also, the “herbicidal efficacy, Echinochloa crus-galli” value in [3] (1 g a.i./10 a) and in data set [3] (5 g a.i./10 a) was 10 (10: 100%) in each case. Also, the “phytotoxicity, Oryza sativa” value in data set [4] (1 g a.i./10 a) and in [4] (5 g a.i./10 a) was 1 (1: 10% to less than 20%) each time. The “herbicidal efficacy, Digitaria ciliaris” value in data set [5] is reported as 10 (10: 100%); in data set [7] (5 g a.i./10 a), 9 (9: 90% to less than 100%); in data set [7] (10 g a.i./10 a) it was 9 (9: 90% to less than 100%); in data set [10] (5 g a.i./10 a), 10 (10: 100%); in data set [10] (10 g a.i./10 a), 10 (10: 100%). Further, the “herbicidal efficacy, Galinsoga parviflora” value in [6] is on record as 10 (10: 100%). The “herbicidal efficacy, Amaranthus retroflexus” value in [8] (5 g a.i./10 a) is 9 (9: 90% to less than 100%); in [8] (10 g a.i./10 a), 9 (9: 90% to less than 100%); in data set [11] (5 g a.i./10 a) it was 10 (10: 100%); in data set [11] (10 g a.i./10 a) it was 10 (10: 100%). Besides, the “herbicidal efficacy, Chenopodium album” value in data set [9] (5 g a.i./10 a) is listed as 9 (9: 90% to less than 100%); in data set [9] (10 g a.i./10 a), 10 (10: 100%); in [12] (5 g a.i./10 a), 10 (10: 100%); in data set [12] (10 g a.i./10 a), 10 (10: 100%).

Turning to `Cc1cccc(CC(=O)Nc2c(C#N)cnn2-c2nn3c(c2Cl)CCCC3)c1` [Compound 9], the “herbicidal efficacy, Scirpus juncoides” value in data set [1] (1 g a.i./10 a) and in data set [1] (5 g a.i./10 a) was 9 (9: 90% to less than 100%) throughout. In addition, the “herbicidal efficacy, Monochoria vaginalis” value in data set [2] (1 g a.i./10 a) is 9 (9: 90% to less than 100%); in [2] (5 g a.i./10 a), 10 (10: 100%). Moreover, the “herbicidal efficacy, Echinochloa crus-galli” value in data set [3] (1 g a.i./10 a) and in [3] (5 g a.i./10 a) was 9 (9: 90% to less than 100%) in each case. In addition, the “phytotoxicity, Oryza sativa” value in data set [4] (1 g a.i./10 a) and in data set [4] (5 g a.i./10 a) was 0 (0 (exponent): 0% to less than 10% (growth inhibition rate)) throughout. The “herbicidal efficacy, Digitaria ciliaris” value was 10 (10: 100%) in [5]; 9 (9: 90% to less than 100%) in data set [7] (5 g a.i./10 a); 9 (9: 90% to less than 100%) in data set [7] (10 g a.i./10 a); 10 (10: 100%) in data set [10] (5 g a.i./10 a); 10 (10: 100%) in data set [10] (10 g a.i./10 a). Moreover, in data set [6], the “herbicidal efficacy, Galinsoga parviflora” value is 10 (10: 100%). Moreover, the “herbicidal efficacy, Amaranthus retroflexus” value was 9 (9: 90% to less than 100%) in [8] (5 g a.i./10 a), 10 (10: 100%) in data set [8] (10 g a.i./10 a), 10 (10: 100%) in data set [11] (5 g a.i./10 a) and 10 (10: 100%) in data set [11] (10 g a.i./10 a). For the same molecule, the “herbicidal efficacy, Chenopodium album” value in data set [9] (5 g a.i./10 a) is recorded as 9 (9: 90% to less than 100%); in [9] (10 g a.i./10 a) it was 10 (10: 100%); in data set [12] (5 g a.i./10 a), 10 (10: 100%); in data set [12] (10 g a.i./10 a), 10 (10: 100%).

Take `N#Cc1cnn(-c2nn3c(c2Cl)CCCC3)c1NC(=O)Cc1cccc(F)c1` [Compound 11]: the entries for the “herbicidal efficacy, Scirpus juncoides” value in data set [1] (1 g a.i./10 a) and in data set [1] (5 g a.i./10 a) were 9 (9: 90% to less than 100%) and 10 (10: 100%), respectively. Moreover, the “herbicidal efficacy, Monochoria vaginalis” value in data set [2] (1 g a.i./10 a) and in data set [2] (5 g a.i./10 a) was 9 (9: 90% to less than 100%) in each case. Further, the “herbicidal efficacy, Echinochloa crus-galli” value in [3] (1 g a.i./10 a) is listed as 9 (9: 90% to less than 100%); in [3] (5 g a.i./10 a), 10 (10: 100%). Also, the entries for the “phytotoxicity, Oryza sativa” value in data set [4] (1 g a.i./10 a) and in data set [4] (5 g a.i./10 a) were 0 (0 (exponent): 0% to less than 10% (growth inhibition rate)) and 1 (1: 10% to less than 20%), respectively. For the same molecule, the “herbicidal efficacy, Digitaria ciliaris” value in [5] is 10 (10: 100%); in data set [7] (5 g a.i./10 a), 9 (9: 90% to less than 100%); in [7] (10 g a.i./10 a), 10 (10: 100%); in [10] (5 g a.i./10 a), 10 (10: 100%); in data set [10] (10 g a.i./10 a) it was 10 (10: 100%). Moreover, in data set [6], the “herbicidal efficacy, Galinsoga parviflora” value is 10 (10: 100%). The “herbicidal efficacy, Amaranthus retroflexus” value is given as 9 (9: 90% to less than 100%) in data set [8] (5 g a.i./10 a), 9 (9: 90% to less than 100%) in [8] (10 g a.i./10 a), 10 (10: 100%) in data set [11] (5 g a.i./10 a) and 10 (10: 100%) in data set [11] (10 g a.i./10 a). The “herbicidal efficacy, Chenopodium album” value in [9] (5 g a.i./10 a), in data set [9] (10 g a.i./10 a), in [12] (5 g a.i./10 a) and in data set [12] (10 g a.i./10 a) was 10 (10: 100%) throughout.

In the case of `N#Cc1cnn(-c2nn3c(c2Cl)CCCC3)c1NC(=O)Cc1ccc(F)cc1` [Compound 15], the figures for the “herbicidal efficacy, Scirpus juncoides” value in data set [1] (1 g a.i./10 a) and in [1] (5 g a.i./10 a) were 9 (9: 90% to less than 100%) and 10 (10: 100%), respectively. For the same molecule, the “herbicidal efficacy, Monochoria vaginalis” value in data set [2] (1 g a.i./10 a) and in data set [2] (5 g a.i./10 a) was 10 (10: 100%) in each case. Moreover, the “herbicidal efficacy, Echinochloa crus-galli” value in [3] (1 g a.i./10 a) and in data set [3] (5 g a.i./10 a) was 10 (10: 100%) throughout. Further, the “phytotoxicity, Oryza sativa” value in data set [4] (1 g a.i./10 a) and in data set [4] (5 g a.i./10 a) was 1 (1: 10% to less than 20%) in each case. Besides, the “herbicidal efficacy, Digitaria ciliaris” value is 10 (10: 100%) in [5]; 9 (9: 90% to less than 100%) in data set [7] (5 g a.i./10 a); 10 (10: 100%) in data set [7] (10 g a.i./10 a); 10 (10: 100%) in data set [10] (5 g a.i./10 a); 10 (10: 100%) in [10] (10 g a.i./10 a). For the same molecule, the “herbicidal efficacy, Galinsoga parviflora” value in [6] was 10 (10: 100%). Also, the “herbicidal efficacy, Amaranthus retroflexus” value in data set [8] (5 g a.i./10 a), in [8] (10 g a.i./10 a), in data set [11] (5 g a.i./10 a) and in [11] (10 g a.i./10 a) was 10 (10: 100%) each time. The “herbicidal efficacy, Chenopodium album” value in [9] (5 g a.i./10 a), in [9] (10 g a.i./10 a), in data set [12] (5 g a.i./10 a) and in [12] (10 g a.i./10 a) was 10 (10: 100%) in each case.

Values taken from US10165776B2, “Substituted pyrazolylpyrazole derivative and use of same as herbicide” (KYOYU AGRI CO., LTD., priority 2015, dated 2019).
